Columns and labels:
Conditions in all cases: incubation time: 72 h
[1] = system: BT-474; assay: normalised response (% of control), CellTiter-Glo; higher = more viable cells (100 = DMSO, 0 = benzethonium chloride kill control)
Summary of the method: (§1)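 The table gives the normalised signal for a single concentration in each entry. Breast cancer cell lines were seeded (20 µl suspension) into 384-well plates holding compound at 5 concentrations in 10-fold steps over a compound-specific 10,000-fold range and incubated 72 h, then read for CellTox Green fluorescence (485/520 nm) and CellTiter-Glo luminescence. Normalisation on each plate used 0.1 % DMSO (100) and a positive kill control (0).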

[2] = system: BT-549; assay: as above
Summary of the method: as §1

[3] = system: CAL-120; assay: as above
Summary of the method: as §1

[4] = system: CAL-148; assay: as above
Summary of the method: as §1

[5] = system: CAL-51; assay: as above
Summary of the method: as §1

[6] = system: CAL-85-1; assay: as above
Summary of the method: as §1

[7] = system: DU-4475; assay: as above
Summary of the method: as §1

[8] = system: HCC1143; assay: as above
Summary of the method: as §1

[9] = system: HCC1599; assay: as above
Summary of the method: as §1

[10] = system: HCC1937; assay: as above
Summary of the method: as §1

[11] = system: HDQ-P1; assay: as above
Summary of the method: as §1

[12] = system: Hs578T; assay: as above
Summary of the method: as §1

[13] = system: MCF-10A; assay: as above
Summary of the method: as §1

[14] = system: MDA-MB-231; assay: as above
Summary of the method: as §1

[15] = system: MDA-MB-436; assay: as above
Summary of the method: as §1

[16] = system: MDA-MB-453; assay: as above
Summary of the method: as §1

[17] = system: MDA-MB-468; assay: as above
Summary of the method: as §1

[18] = system: MFM-223; assay: as above
Summary of the method: as §1

[19] = system: SK-BR-3; assay: as above
Summary of the method: as §1

[20] = system: BT-474; assay: normalised viability (% of control), CellTiter-Blue; higher = more viable cells (100 = DMSO, 0 = benzethonium chloride kill control)
Experimental: (§2)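 DSRT, CellTiter-Blue viability, 72 h incubation. Signal is normalised to DMSO and benzethonium chloride controls. Value is the normalised response at dose 1.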

[21] = system: BT-549; assay: as above
Experimental: as §2

[22] = system: CAL-120; assay: as above
Experimental: as §2

[23] = system: CAL-148; assay: as above
Experimental: as §2

[24] = system: CAL-51; assay: as above
Experimental: as §2

[25] = system: CAL-85-1; assay: as above
Experimental: as §2

[26] = system: DU-4475; assay: as above
Experimental: as §2

[27] = system: HCC1143; assay: as above
Experimental: as §2

[28] = system: HCC1599; assay: as above
Experimental: as §2

[29] = system: HCC1937; assay: as above
Experimental: as §2

[30] = system: HDQ-P1; assay: as above
Experimental: as §2

[31] = system: Hs578T; assay: as above
Experimental: as §2

[32] = system: MDA-MB-231; assay: as above
Experimental: as §2

[33] = system: MDA-MB-436; assay: as above
Experimental: as §2

[34] = system: MDA-MB-453; assay: as above
Experimental: as §2

[35] = system: MDA-MB-468; assay: as above
Experimental: as §2

[36] = system: MFM-223; assay: as above
Experimental: as §2

[37] = system: SK-BR-3; assay: as above
Experimental: as §2

Structure (SMILES) | normalised response [1] [%] | normalised response [2] [%] | normalised response [3] [%] | normalised response [4] [%] | normalised response [5] [%] | normalised response [6] [%] | normalised response [7] [%] | normalised response [8] [%] | normalised response [9] [%] | normalised response [10] [%] | normalised response [11] [%] | normalised response [12] [%] | normalised response [13] [%] | normalised response [14] [%] | normalised response [15] [%] | normalised response [16] [%] | normalised response [17] [%] | normalised response [18] [%] | normalised response [19] [%] | normalised viability [20] [%] | normalised viability [21] [%] | normalised viability [22] [%] | normalised viability [23] [%] | normalised viability [24] [%] | normalised viability [25] [%] | normalised viability [26] [%] | normalised viability [27] [%] | normalised viability [28] [%] | normalised viability [29] [%] | normalised viability [30] [%] | normalised viability [31] [%] | normalised viability [32] [%] | normalised viability [33] [%] | normalised viability [34] [%] | normalised viability [35] [%] | normalised viability [36] [%] | normalised viability [37] [%]
Nc1nc(Cl)nc2c1ncn2[C@H]1C[C@H](O)[C@@H](CO)O1 [Cladribine] (0.1 nM) | 99.6 | 109 | 94.3 | 97.7 | 114 | 99.8 | 105 | 105 | 91.3 | 101 | 96.3 | 105 | 106 | 102 | 148 | 105 | 101 | 106 | 100 | 75.1 | 85.4 | 98.3 | 117 | 112 | 85.4 | 99.2 | 91.8 | 88.7 | 86.8 | 109 | 108 | 74.9 | 107 | 112 | 98.4 | 89.3 | 95.5
Nc1ccn([C@@H]2O[C@H](CO)[C@@H](O)[C@@H]2O)c(=O)n1 [Cytarabine] (1 nM) | 103 | 93.5 | 98.7 | 99.7 | 75.7 | 98.8 | 100 | 97.6 | 108 | 99.3 | 96.6 | 102 | 112 | 93.3 | 102 | 99.8 | 97.8 | 103 | 101 | 75.4 | 86.8 | 96.1 | 106 | 89.8 | 101 | 111 | 108 | 111 | 95.3 | 96.5 | 93.9 | 92.2 | 101 | 96.3 | 98.1 | 102 | 101
Cc1c2oc3c(C)ccc(C(=O)N[C@@H]4C(=O)N[C@H](C(C)C)C(=O)N5CCC[C@H]5C(=O)N(C)CC(=O)N(C)[C@@H](C(C)C)C(=O)O[C@@H]4C)c3nc-2c(C(=O)N[C@@H]2C(=O)N[C@H](C(C)C)C(=O)N3CCC[C@H]3C(=O)N(C)CC(=O)N(C)[C@@H](C(C)C)C(=O)O[C@@H]2C)c(N)c1=O [Dactinomycin] (0.1 nM) | 96 | 99.8 | 94.2 | 97.4 | 101 | 107 | 103 | 106 | 90.6 | 95.9 | 93.1 | 110 | 104 | 102 | 123 | 102 | 92.2 | 104 | 99 | 95.7 | 91.3 | 95.6 | 90.5 | 94 | 97.2 | 90.5 | 93.7 | 79.1 | 78.5 | 108 | 125 | 91.6 | 94.9 | 94.6 | 92.2 | 104 | 96
COc1cccc2c1C(=O)c1c(O)c3c(c(O)c1C2=O)C[C@@](O)(C(=O)CO)C[C@@H]3O[C@H]1C[C@H](N)[C@H](O)[C@H](C)O1 [Doxorubicin] (0.1 nM) | 107 | 105 | 100 | 103 | 99.3 | 105 | 104 | 102 | 119 | 101 | 102 | 101 | 98.8 | 105 | 101 | 120 | 103 | 104 | 107 | 79.6 | 95 | 86.9 | 97.8 | 102 | 84.6 | 102 | 91.2 | 82.8 | 86.4 | 98.5 | 110 | 96.8 | 112 | 102 | 104 | 95.6 | 90.3

— the supplement of paper PMC4862054
